{"source": "patent US10556021B2", "about": "“Nanocarriers for drug delivery” (THE REGENTS OF THE UNIVERSITY OF CALIFORNIA, priority 2008, dated 2020)", "key": {"[1]": {"test_system": "SKOV-3 ovarian cancer xenografts", "assay": "Size effect on biodistribution, NIR imaging, xenograft model II", "set-up": "species or system nude mice", "details": "in vivo NIR imaging", "procedure": "To study the effects of particle size on the in vivo biodistribution of nanoparticles, the same concentration of DiD (a hydrophobic near infra-red (NIR) cyanine dye, 1 mg/mL) was co-loaded with PTX (4 mg/mL, 4 mg/mL and 3 mg/mL, respectively) into 20 mg/mL micelle solutions of PEG^2000-CA4, PEG^5000-CA8 and PEG^3000-CA4, to form three fluorescence labeled micelle preparations with distinct sizes of 17 nm, 64 nm and 154 nm, respectively (FIG. 35A). Each of these three sizes of DiD-loaded micelles was incubated with Raw 264.7 macrophage cells for 2 h. The cells were then washed three times with PBS, fixed with 70% ethanol and observed under confocal fluorescence microscope. […] NIR fluorescent imaging was used to evaluate the in vivo biodistribution of the three micelles with different sizes in nude mice bearing the SKOV-3 ovarian cancer xenografts (subcutaneous and intraperitoneal implants). The mice were injected via the tail vein with the same volume of the above three PTX-DiD loaded micelle preparations in PBS. Ex vivo imaging of the excised organs and tumors were performed at 24 h after injection. […] The in vivo NIR images of a tumor bearing mouse treated with the DiD-PTX-PEG^5000CA8 was recorded over time (FIG. 35D). The accumulation of the DiD loaded micelles at the tumor site via the EPR effect began at 2 h after injection and continued to increase over the 24 h period."}, "[2]": {"test_system": "intraperitoneal SKOV3-luc ovarian tumor", "assay": "Biodistribution after i.p. injection, xenograft model III", "type": "in vivo, mice", "details": "up to 72 h", "procedure": "PEG^5000-CA8 (polymer 7) nanoparticles biodistribution after i.p. injection in intraperitoneal SKOV3-luc ovarian tumor bearing mice was investigated. Mice were injected i.p. with free DiD or DiD-loaded PEG^5000-CA8 nanoparticles. […] At 72 h, the peritoneal cavity was exposed and scanned with the Kodak imaging station, displaying DiD-labeled PEG^5000-CA8 nanoparticles localization on the surface of peritoneal tumor nodules (FIGS. 38A-38B)."}}, "data": [{"smiles": "CCCCCCCCCCCCCCCCCCN1C(=CC=CC=CC2=[N+](CCCCCCCCCCCCCCCCCC)c3ccccc3C2(C)C)C(C)(C)c2ccccc21.[O-][Cl+3]([O-])([O-])[O-]", "note": "[DiD, 1,1′-dioctadecyl-3,3,3′,3′-tetramethylindo-dicarbocyanine perchlorate]", "values": [{"measurement": "tumor targeting", "setting": "[1]", "value": "no tumor targeting was found"}, {"measurement": "fluorescence distribution after i.p. injection", "setting": "[2]", "value": "declined to a level not distinguishable from background auto-fluorescence at 72 h"}]}]}
